Like-named read-outs stand apart in the source and are kept apart here. Non-standard residues stand in square brackets, D forms with d. Residues, ends and D or L forms follow the SMILES beside them. *: point of attachment. pY = N[C@@H](Cc1ccc(OP(=O)(O)O)cc1)C(=O)O; Caffeoyl = O=C(/C=C/c1ccc(O)c(O)c1)*

Test in all cases: biochemical
Format in all cases: binding

The target of experiment [1] is T1, STAP1 (Homo sapiens, UniProt Q9ULZ2).
T1 construct: made in house; host or cells: HEK293 (transient transfection), unpurified extract
T1 sequence (Q9ULZ2 1-295): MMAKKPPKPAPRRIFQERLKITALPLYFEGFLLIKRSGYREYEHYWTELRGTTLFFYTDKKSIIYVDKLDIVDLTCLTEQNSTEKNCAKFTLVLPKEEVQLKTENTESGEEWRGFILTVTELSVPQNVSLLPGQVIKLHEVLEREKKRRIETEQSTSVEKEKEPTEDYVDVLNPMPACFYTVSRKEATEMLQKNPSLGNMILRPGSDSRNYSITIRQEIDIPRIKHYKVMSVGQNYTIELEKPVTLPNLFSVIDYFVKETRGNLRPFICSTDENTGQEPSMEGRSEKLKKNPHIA
Conditions: read-out: percent of DMSO vehicle control.

For experiment [2], the target named is T2, PLCG2(SH2dom.C-term.) (Homo sapiens, UniProt P16885).
T2 construct: SH2dom.C-term. denotes SH2 domain closest to C-terminus of protein; made in house; host or cells: HEK293 (transient transfection, unpurified extract)
T2 sequence (P16885 646-735 limits assumed): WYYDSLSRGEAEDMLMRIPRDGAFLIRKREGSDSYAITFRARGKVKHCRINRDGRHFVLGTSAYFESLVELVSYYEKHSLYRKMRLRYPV
Particulars: for remaining activity at 10 µM: read-out: percent of DMSO vehicle control.

Experiment [3] addresses T3, HSH2D (Homo sapiens, UniProt Q96JZ2).
T3 construct: the DNA-tagged SH2 domain concentrations used in this study were <0.1 nM; made in house; host or cells: HEK293 (transient transfection, unpurified extract)
T3 sequence (Q96JZ2 34-125 limits assumed): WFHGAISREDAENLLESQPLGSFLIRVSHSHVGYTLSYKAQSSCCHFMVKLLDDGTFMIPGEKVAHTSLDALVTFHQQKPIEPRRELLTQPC

The target of experiment [4] is T4, PTPN6(SH2dom.N-term.) (Homo sapiens, UniProt P29350).
T4 construct: SH2dom.N-term. denotes SH2 domain closest to N-terminus of protein; made in house; host or cells: HEK293 (transient transfection, unpurified extract)
T4 sequence (P29350 4-100 limits assumed): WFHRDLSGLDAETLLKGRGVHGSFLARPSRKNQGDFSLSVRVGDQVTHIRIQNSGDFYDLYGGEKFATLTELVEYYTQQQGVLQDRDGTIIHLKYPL
Conditions: read-out: percent of DMSO vehicle control.

The target in experiment [5] is T5, SRC (Homo sapiens, UniProt P12931).
T5 construct: made in house; host or cells: HEK293 (transient transfection), unpurified extract
Conditions: for remaining activity at 10 µM: read-out: percent of DMSO vehicle control.

For experiment [6], the target named is T6, CRK (Homo sapiens, UniProt P46108).
T6 construct: the DNA-tagged SH2 domain concentrations used in this study were <0.1 nM; made in house; host or cells: HEK293 (transient transfection; unpurified extract)

The target in experiment [7] is T7, LYN (Homo sapiens, UniProt P07948).
T7 construct: the DNA-tagged SH2 domain concentrations used in this study were <0.1 nM; made in house; host or cells: HEK293 (transient transfection, unpurified extract)
Conditions: for remaining activity at 10 µM: read-out: percent of DMSO vehicle control.

In experiment [8] the target is T8, GRB2 (Homo sapiens, UniProt P62993).
T8 construct: the DNA-tagged SH2 domain concentrations used in this study were <0.1 nM; made in house; host or cells: HEK293 (transient transfection; unpurified extract)

Experiment [9] has as its target T9, HCK (Homo sapiens, UniProt P08631).
T9 construct: the DNA-tagged SH2 domain concentrations used in this study were <0.1 nM; made in house; host or cells: HEK293 (transient transfection, unpurified extract)
Conditions: for remaining activity at 10 µM: read-out: percent of DMSO vehicle control.

Experiment [10] addresses T10, PIK3R1(SH2dom.N-term.) (Homo sapiens, UniProt P27986).
T10 construct: SH2dom.N-term. denotes SH2 domain closest to N-terminus of protein; made in house; host or cells: HEK293 (transient transfection, unpurified extract)
Conditions: for remaining activity at 10 µM: read-out: percent of DMSO vehicle control.

Experiment [11] has as its target T11, BLNK (Homo sapiens, UniProt Q8WV28).
T11 construct: the DNA-tagged SH2 domain concentrations used in this study were <0.1 nM; made in house; host or cells: HEK293 (transient transfection; unpurified extract)
T11 sequence (Q8WV28 346-453 limits assumed): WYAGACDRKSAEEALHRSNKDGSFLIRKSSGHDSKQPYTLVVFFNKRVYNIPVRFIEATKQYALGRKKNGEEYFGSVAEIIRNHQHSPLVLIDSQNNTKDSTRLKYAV
Particulars: for remaining activity at 10 µM: read-out: percent of DMSO vehicle control.

Experiment [12] addresses T12, SLP76 (Homo sapiens, UniProt Q13094).
T12 construct: made in house; host or cells: HEK293 (transient transfection), unpurified extract
T12 sequence (Q13094 1-533): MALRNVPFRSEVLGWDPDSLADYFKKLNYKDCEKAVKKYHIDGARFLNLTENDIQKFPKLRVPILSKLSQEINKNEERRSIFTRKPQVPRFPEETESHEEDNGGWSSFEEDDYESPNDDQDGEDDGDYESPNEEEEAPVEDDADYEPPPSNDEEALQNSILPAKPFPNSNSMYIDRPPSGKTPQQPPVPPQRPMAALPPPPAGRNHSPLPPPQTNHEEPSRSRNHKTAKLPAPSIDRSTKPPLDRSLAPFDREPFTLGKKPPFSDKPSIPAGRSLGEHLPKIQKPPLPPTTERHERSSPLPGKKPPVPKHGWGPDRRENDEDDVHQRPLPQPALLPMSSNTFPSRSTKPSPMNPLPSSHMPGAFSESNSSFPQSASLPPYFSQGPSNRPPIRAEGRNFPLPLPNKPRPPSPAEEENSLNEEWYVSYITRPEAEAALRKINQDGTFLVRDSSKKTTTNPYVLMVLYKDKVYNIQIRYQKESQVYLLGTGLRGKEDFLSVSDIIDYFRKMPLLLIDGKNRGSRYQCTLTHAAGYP
Particulars: read-out: percent of DMSO vehicle control.

Experiment [13] deals with T13, BRK (Homo sapiens, UniProt Q13882).
T13 construct: the DNA-tagged SH2 domain concentrations used in this study were <0.1 nM; made in house; host or cells: HEK293 (transient transfection; unpurified extract)
Particulars: for remaining activity at 10 µM: read-out: percent of DMSO vehicle control.

Experiment [14] concerns the target T14, MIST (Homo sapiens, UniProt Q7Z7G1).
T14 construct: the DNA-tagged SH2 domain concentrations used in this study were <0.1 nM; made in house; host or cells: HEK293 (transient transfection, unpurified extract)
T14 sequence (Q7Z7G1 309-419 limits assumed): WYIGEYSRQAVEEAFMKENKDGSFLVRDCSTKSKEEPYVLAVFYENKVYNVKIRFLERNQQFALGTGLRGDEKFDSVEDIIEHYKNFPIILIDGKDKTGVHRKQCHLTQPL
Conditions: read-out: percent of DMSO vehicle control.

Experiment [15] deals with T15, ABL1 (Homo sapiens, UniProt P00519).
T15 construct: the DNA-tagged SH2 domain concentrations used in this study were <0.1 nM; made in house; host or cells: HEK293 (transient transfection; unpurified extract)
T15 sequence (P00519 127-217 limits assumed): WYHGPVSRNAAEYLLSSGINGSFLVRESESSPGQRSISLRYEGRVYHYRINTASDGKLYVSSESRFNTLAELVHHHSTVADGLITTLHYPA

In experiment [16] the target is T16, ITK (Homo sapiens, UniProt Q08881).
T16 construct: the DNA-tagged SH2 domain concentrations used in this study were <0.1 nM; made in house; host or cells: HEK293 (transient transfection, unpurified extract)
T16 sequence (Q08881 239-338 limits assumed): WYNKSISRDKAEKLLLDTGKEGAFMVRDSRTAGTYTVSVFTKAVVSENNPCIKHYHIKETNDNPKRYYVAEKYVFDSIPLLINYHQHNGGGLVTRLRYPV
Conditions: for percent of DMSO vehicle control: primary screen, 10 μM.

The mark [17] stands for this setting: primary screen, 10 μM, read-out: percent of DMSO vehicle control.
[18] abbreviates: read-out: percent of DMSO vehicle control.

T5 sequence (P12931 whole entry): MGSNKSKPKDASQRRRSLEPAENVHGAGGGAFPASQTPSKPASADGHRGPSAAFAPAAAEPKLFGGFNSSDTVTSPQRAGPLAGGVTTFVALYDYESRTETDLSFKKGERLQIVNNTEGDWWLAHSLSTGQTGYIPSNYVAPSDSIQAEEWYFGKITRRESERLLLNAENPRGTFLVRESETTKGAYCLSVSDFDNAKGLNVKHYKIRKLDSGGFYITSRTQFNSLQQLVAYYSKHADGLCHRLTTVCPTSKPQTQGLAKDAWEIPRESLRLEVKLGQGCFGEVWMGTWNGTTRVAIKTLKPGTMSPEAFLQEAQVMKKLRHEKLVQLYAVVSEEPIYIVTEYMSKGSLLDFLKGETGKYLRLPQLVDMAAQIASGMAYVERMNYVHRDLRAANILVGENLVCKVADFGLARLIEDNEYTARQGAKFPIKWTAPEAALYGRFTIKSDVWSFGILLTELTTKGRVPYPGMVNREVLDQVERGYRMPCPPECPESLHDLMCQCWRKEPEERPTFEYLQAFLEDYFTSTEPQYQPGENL
T7 sequence (P07948 129-226 limits assumed): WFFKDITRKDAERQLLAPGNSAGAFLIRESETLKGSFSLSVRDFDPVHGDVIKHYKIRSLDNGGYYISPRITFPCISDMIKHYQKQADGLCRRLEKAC
T10 sequence (P27986 333-428 limits assumed): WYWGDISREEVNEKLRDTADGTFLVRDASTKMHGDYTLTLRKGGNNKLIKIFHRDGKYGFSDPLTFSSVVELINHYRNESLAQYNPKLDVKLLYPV
T13 sequence (Q13882 78-170 limits assumed): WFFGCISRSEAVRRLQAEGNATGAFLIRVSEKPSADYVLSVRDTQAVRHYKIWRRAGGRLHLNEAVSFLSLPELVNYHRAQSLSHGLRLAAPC
T9 sequence (P08631 144-241 limits assumed): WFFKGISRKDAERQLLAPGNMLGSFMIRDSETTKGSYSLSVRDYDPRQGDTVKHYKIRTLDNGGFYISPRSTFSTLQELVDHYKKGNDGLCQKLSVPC
T6 sequence (P46108 13-118 limits assumed): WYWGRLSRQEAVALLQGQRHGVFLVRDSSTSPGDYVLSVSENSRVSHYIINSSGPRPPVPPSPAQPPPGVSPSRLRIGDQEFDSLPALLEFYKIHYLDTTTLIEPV
T8 sequence (P62993 60-152 limits assumed): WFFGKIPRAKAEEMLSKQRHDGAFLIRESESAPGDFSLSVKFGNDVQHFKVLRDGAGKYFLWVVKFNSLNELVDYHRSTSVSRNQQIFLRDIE

With `C/C(=C\C(=O)N[C@H](C(=O)N1CCC[C@H]1C(=O)N(c1ccccc1)c1ccc(I)cc1)C(C)(C)C)c1ccc(OP(=O)(O)O)cc1` [STAT6-IN-1], the remaining activity at 10 µM was 65.6 ± 5.1% in experiment [1] (primary screen, 10 μM); 7.5 ± 0.6% in experiment [2] (primary screen, 10 μM); 14.6 ± 0.1% in experiment [3] (setting [17]); 69.7% in experiment [4] (primary screen, 10 μM); 53.3 ± 8.1% in [5] (primary screen, 10 μM); 34.5 ± 1.8% in experiment [6] (setting [17]). Moreover, the remaining activity at 10 µM stood at 73.6 ± 54% in experiment [7] (primary screen, 10 μM); 48.8 ± 5.2% in [9] (primary screen, 10 μM); 44.8 ± 5% in [10] (primary screen, 10 μM); 116 ± 19.9% in experiment [11] (primary screen, 10 μM); 50.8 ± 0.4% in experiment [12] (primary screen, 10 μM); 3 ± 0.4% in [13] (primary screen, 10 μM). Besides, the remaining activity at 10 µM in [14] (primary screen, 10 μM) is 88.7 ± 5.9%; in experiment [15] (setting [17]), 0%. Further, the Kd in experiment [2] (dose-response, read-out: KD) came to 3800 ± 500 nM; in experiment [6] (dose-response, read-out: KD) it was 2004 ± 5.9 nM; in [8] (dose-response, read-out: KD) it was 6040 ± 1400 nM; in experiment [16] (dose-response, read-out: KD) it was 10300 nM. The KD result in experiment [3] (dose-response), in experiment [13] (dose-response) and in [15] (dose-response) was “No Hit” each time. Also, in experiment [16], the “percent of DMSO vehicle control” value was 0.0±0.0%.

Take `CC[C@H](C)[C@H](NC(=O)[C@H](CCC(=O)O)NC(=O)[C@H](CCC(=O)O)NC(=O)[C@H](Cc1ccc(OP(=O)(O)O)cc1)NC(=O)/C=C/c1ccc(O)c(O)c1)C(=O)N[C@@H](CCC(=O)O)C(=O)O` [Caffeic acid-pYEEIE] (Caffeoyl-[pY]EEIE-OH): the remaining activity at 10 µM came to 77.9 ± 1% in [1]; 1.1 ± 0.1% in experiment [2]; 118 ± 19.5% in [4]; 0% in [5]; 0% in [7]; 0% in experiment [9]. In addition, the remaining activity at 10 µM in [10] came to 0.7 ± 0.1%; in experiment [11] it was 3.2 ± 0.6%; in experiment [12] it was 99.6 ± 4.7%; in experiment [13], 0%. Further, the Kd in experiment [2] was 660 ± 700 nM; in [5], 4.8 ± 1.3 nM; in experiment [6], 2300 ± 670 nM; in [7], 1 ± 0.34 nM; in [9], 6 ± 0.97 nM; in experiment [10], 140 ± 17 nM. The Kd in experiment [11] is 240 ± 24 nM; in experiment [13], 24 ± 3.9 nM; in experiment [15], 105 ± 17 nM; in [16], 570 ± 630 nM. For the same compound, the percent of DMSO vehicle control at 10 µM in [3] (setting [18]) is 80.3 ± 18.6%; in [6] (setting [18]) it was 3.1 ± 2.8%; in experiment [14] it was 72.9 ± 1.4%. Also, the “percent of DMSO vehicle control” value was 73.4±9.2% in experiment [8] (primary screen, 10 μM) and 3.1±0.3% in experiment [16]. The percent of DMSO control binding at 10 µM in experiment [15] (setting [18]) was 0%.

The term Kd denotes the free concentration of one partner at which half of the binding sites on the other are occupied at equilibrium, for simple one-to-one binding.

The record behind these values is publication PMC12951562, “SH2scan: Mapping SH2 Domain-Ligand Binding Selectivity for Inhibitors and Degraders” (Journal of Medicinal Chemistry, 2026).
